The target of data set [1] is T1, human VDR (Homo sapiens, UniProt P11473).
T1 construct: expressed in transfected cells; host or cells: COS cells
T1 sequence (P11473 1-427): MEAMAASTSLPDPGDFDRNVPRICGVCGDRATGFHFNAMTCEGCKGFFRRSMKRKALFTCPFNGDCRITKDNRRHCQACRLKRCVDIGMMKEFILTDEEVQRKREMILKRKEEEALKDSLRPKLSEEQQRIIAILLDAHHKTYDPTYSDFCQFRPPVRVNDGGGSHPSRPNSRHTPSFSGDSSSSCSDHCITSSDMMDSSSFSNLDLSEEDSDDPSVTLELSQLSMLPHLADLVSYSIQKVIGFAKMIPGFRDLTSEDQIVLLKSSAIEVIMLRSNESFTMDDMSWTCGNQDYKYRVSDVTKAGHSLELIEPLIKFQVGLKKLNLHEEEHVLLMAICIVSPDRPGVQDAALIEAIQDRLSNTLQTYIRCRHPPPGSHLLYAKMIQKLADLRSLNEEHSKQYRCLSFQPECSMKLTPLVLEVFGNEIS
Nature of the data set: VDR activation (transcription activation assay; COS cells cotransfected with human VDR and VDRE3-luciferase reporter). The note with it: human VDR (pSG5), VDRE3 rat osteocalcin / tk promoter / luciferase reporter, concentration giving half-maximal activity (8-10 fold luciferase induction), read-out: Vitamin D Receptor Activation ED50. It is filed as cell-based. From the text:
In order to measure the activation of the vitamin D receptor (VDR) by vitamin D analogs in cells a transcription activation assay was used. COS cells were cotransfected with the human VDR (expressed in pSG5) and a reporter gene containing three response elements (VDRE3) from the rat osteocalcin gene, the thymidine kinase basal promoter, and the luciferase reporter gene.

Data set [2] in a line: Calcium liability (tolerance test in mice). The note with it: mouse, in vivo, sc. An excerpt: This routine test gives a global picture of calcemic liability. Profound changes in calcium homeostasis strongly affect the weight development of the animals. This parameter was used as a primary test for tolerance. Mice (25-30 g body weight.) received daily subcutaneous administrations of the vitamin D derivative for 4 consecutive days. Body weight was registered just before and at the end of a 5 day treatment period.

[3] abbreviates: mice 25-30 g, daily subcutaneous administration for 4 consecutive days, body weight before and at end of 5 day treatment period, read-out: HTD in mice (highest tolerated dose, dose which results in zero weight gain).

Where two headings read alike, the source gives them in different places.

As for `C=C1/C(=C\C=C2/CCC[C@]3(C)[C@@H]([C@H](C)COC(=O)CC(C)(O)CC)CC[C@@H]23)C[C@@H](O)C[C@@H]1O` (mixture of isomers) [Example 29, 1:1 Mixture of (R)-and-(S)-3-hydroxy-3-methyl-pentanoic acid-(5Z,7E)-(1S,3R,20S)-1,3-dihydroxy-20-methyl-9,10-seco-pregna-5,7,10 (19)-trien-21-yl ester], the EC50 in data set [1] was found to be 2.5 nM. The MTD at 120 h in data set [2] was 7 mg/kg.
As for `C=C1/C(=C\C=C2/CCC[C@]3(C)[C@@H]([C@H](C)CCCC(C)(C)O)CC[C@@H]23)C[C@@H](O)C[C@@H]1O` [Calcitriol, calcitriol, reference compound], in data set [2] (setting [3]), the MTD at 120 h turned out to be 0.0005 mg/kg.
`C[C@H](C(=O)OCC1(O)CCCC1)[C@H]1CC[C@H]2/C(=C/C=C3C[C@@H](O)C[C@H](O)C3)CCC[C@]12C` [Example 7, (7E)-(1R,3R,20S)-1,3-Dihydroxy-20-methyl-19-nor-9,10-seco-pregna-5,7-dien-21-oic acid 1-hydroxy-cyclopentylmethyl ester]: the EC50 in data set [1] amounted to 18 nM. Further, the MTD at 120 h in data set [2] (setting [3]) is > 5 mg/kg.
For the molecule `C[C@H](C(=O)OCC1(O)CCCCC1)[C@H]1CC[C@H]2/C(=C/C=C3C[C@@H](O)C[C@H](O)C3)CCC[C@]12C` [Example 8, (7E)-(1R,3R,20S)-1,3-Dihydroxy-20-methyl-19-nor-9,10-seco-pregna-5,7-dien-21-oic acid 1-hydroxy-cyclohexyl methyl ester], the EC50 in data set [1] is 38 nM. The MTD at 120 h in data set [2] (setting [3]) came out at 1 mg/kg.
Take `C=C1/C(=C\C=C2/CCC[C@]3(C)[C@@H]([C@H](C)C(=O)OCC4(O)CCCCC4)CC[C@@H]23)C[C@@H](O)C[C@@H]1O` [Example 9, (5Z,7E)-(1R,3R,20S)-1,3-Dihydroxy-20-methyl-9,10-seco-pregna-5,7,10-trien-21-oic acid 1-hydroxy-cyclohexylmethyl ester]: the EC50 in data set [1] was 5.6 nM. The MTD at 120 h in data set [2] (setting [3]) came out at 1 mg/kg.
Take `C[C@H](C(=O)OCC1(O)CCCCCC1)[C@H]1CC[C@H]2/C(=C/C=C3C[C@@H](O)C[C@H](O)C3)CCC[C@]12C` [Example 10, (7E)-(1R,3R,20S)-1,3-Dihydroxy-20-methyl-19-nor-9,10-seco-pregna-5,7-dien-21-oic acid 1-hyddroxy-cycloheptylmethyl ester]: the EC50 in data set [1] came to 31 nM. Moreover, in data set [2] (setting [3]), the MTD at 120 h was > 6 mg/kg.
Regarding `C[C@H](C(=O)OCCC1(O)CCCC1)[C@H]1CC[C@H]2/C(=C/C=C3C[C@@H](O)C[C@H](O)C3)CCC[C@]12C` [Example 11, (7E)-(1R,3R,20S)-1,3-Dihydroxy-20-methyl-19-nor-9,10-seco-pregna-5,7-dien-21-oic acid 2-(1-hyddroxy-cyclopentyl)-ethyl ester], the EC50 in data set [1] is 180 nM. Besides, the MTD at 120 h in data set [2] (setting [3]) is > 6 mg/kg.
Take `C=C1/C(=C\C=C2/CCC[C@]3(C)[C@@H]([C@@H](C)COC(=O)C(C)(C)C)CC[C@@H]23)C[C@@H](O)C[C@@H]1O` [Example 19, 2,2-Dimethyl-propionic acid-(5Z,7E)-(1S,3R,20R)-1,3-dihydroxy-20-methyl-9,10-seco-pregna-5,7,10 (19)-trien-21-yl ester]: in data set [1], the EC50 turned out to be 0.28 nM. Moreover, the MTD at 120 h in data set [2] was > 6 mg/kg.
`C=C1/C(=C\C=C2/CCC[C@]3(C)[C@@H]([C@@H](C)COC(=O)C(C)(C)O)CC[C@@H]23)C[C@@H](O)C[C@@H]1O` [Example 20, 2-Hydroxy-2-methyl-propionic acid-(5Z,7E)-(1S,3R,20R)-1,3-dihydroxy-20-methyl-9,10-seco-pregna-5,7,10 (19)-trien-21-yl ester]: the EC50 in data set [1] stood at 0.82 nM. Moreover, in data set [2], the MTD at 120 h was > 10 mg/kg.
In the case of `C[C@@H](COC(=O)C(C)(C)O)[C@H]1CC[C@H]2/C(=C/C=C3C[C@@H](O)C[C@H](O)C3)CCC[C@]12C` [Example 21, 2-Hydroxy-2-methyl-propionic acid-(7E)-(1R,3R,20R)-1,3-dihydroxy-20-methyl-19-nor-9,10-seco-pregna-5,7-dien-21-yl ester], the EC50 in data set [1] came out at 0.55 nM. Also, the MTD at 120 h in data set [2] (setting [3]) is > 9 mg/kg.
In the case of `C=C1/C(=C\C=C2/CCC[C@]3(C)[C@@H]([C@H](C)COC(=O)C(C)(C)C)CC[C@@H]23)C[C@@H](O)C[C@@H]1O` [Example 22, 2,2-Dimethyl-propionic acid (5Z,7E)-(1R,3R)-1,3-dihydroxy-23,24-dinor-9,10-secochola-5,7-dien-22-yl ester], in data set [1], the EC50 is 141 nM. Also, the MTD at 120 h in data set [2] was 9 mg/kg.
Consider `C=C1/C(=C\C=C2/CCC[C@]3(C)[C@@H]([C@H](C)COC(=O)C(C)(C)O)CC[C@@H]23)C[C@@H](O)C[C@@H]1O` [Example 23, 2-Hydroxy-2-methyl-propionic acid-(5Z,7E)-(1S,3R,20S)-1,3-dihydroxy-20-methyl-9,10-seco-pregna-5,7,10 (19)-trien-21-yl ester], for which the EC50 in data set [1] turned out to be 83 nM. Further, in data set [2], the MTD at 120 h was > 11 mg/kg.
`C=C1/C(=C\C=C2/CCC[C@]3(C)[C@@H]([C@H](C)COC(=O)C(O)(CC)CC)CC[C@@H]23)C[C@@H](O)C[C@@H]1O` [Example 24, 2-Ethyl-2-hydroxy-butyric acid-(5Z,7E)-(1S,3R,20S)-1,3-dihydroxy-20-methyl-9,10-seco-pregna-5,7,10 (19)-trien-21-yl ester]: the EC50 in data set [1] was 18 nM. Moreover, the MTD at 120 h in data set [2] (setting [3]) worked out at 2.5 mg/kg.
With `C=C1/C(=C\C=C2/CCC[C@]3(C)[C@@H]([C@H](C)COC(=O)CC(C)(O)C(F)(F)F)CC[C@@H]23)C[C@@H](O)C[C@@H]1O` (stereo partly drawn) [Example 28], the EC50 in data set [1] came to 0.53 nM. Also, the MTD at 120 h in data set [2] (setting [3]) came out at 0.5 mg/kg.

(Values after patent US5827883A, “Dermatological use of vitamin D derivatives” (priority 1995, dated 1998).)
